Results reported in patent EP2957607B1, “IMAGE FORMING METHOD” (Konica Minolta, Inc., priority 2014, dated 2015).

Assay: pKa value (acid dissociation constant) of the adsorption inhibitor
Format: physicochemical
From the text: The pKa value is also called the acid dissociation constant, which can be determined by a conventional method. The pKa value can be determined by, for example, the method described in Jikken Kagaku Koza 5, Netsuteki Sokutei oyobi Heiko (Experimental Chemistry Lecture 5, Thermal Measurements and Equilibrium), page 460, edited by The Chemical Society of Japan, Maruzen Co., Ltd.

pKa: < 5.5
Structure (SMILES): O=C(O)CC(O)C(=O)O (stereo not shown) [malic acid, Malic acid]
